In EP4497440A1, “USE OF 7-TRIFLUOROMETHYL-7ALPHA,25-DIHYDROXYCHOLESTEROL IN THE TREATMENT AND MODULATION OF AUTOIMMUNE AND INFLAMMATORY DISEASES OF THE NERVOUS SYSTEM AND NEURODEGENERATIVE DISEASES” (Gdanski Uniwersytet Medyczny, priority 2023, dated 2025):
Entries after “also recorded” stand apart in the source; their conditions may differ.

Tests used:
CD4+ cells = experiment: Cuprizone model: immunofluorescently tagged CD4+ cells in the central part of the corpus callosum; type: in vivo, mice; settings: after 14 days of treatment in the cuprizone model, group E
Description: Measurement of the quantity of immunofluorescently-tagged CD4+ cells in the central part of the corpus callosum following 14 days of treatment in the cuprizone model (Fig 7). Morphology of mouse blood in the cuprizone model and the in vivo model testing short-term pharmacotherapy of oxysterol CF3-7α,25OHC (Fig 10).
A (Fig 7) control group: regular cuprizone-free chow for 9 weeks. Mice were euthanised after 9 weeks and tissue samples were taken for analysis. In these mice, myelin sheaths were not removed.
B (Fig 7) control group with cuprizone: chow containing cuprizone for 9 weeks. The mice were euthanised following 9 weeks and tissue samples were taken for analysis. In the mice fed with cuprizone-containing chow myelin sheaths were removed.
C (Fig 7) or #3 (Fig 8 and 9) vehicle control group - the mice were fed with chow containing cuprizone for 9 weeks, and then with regular chow without cuprizone for another 2 weeks. Over the 2 weeks on regular chow the mice in the vehicle control group were first injected vehicle #1: DMSO (intraperitoneal injection), 150 µl once a day, and then vehicle #2: canola oil, subcutaneously, 150 µl once a day.
E (Fig 7) or #5 experimental group with oxysterol CF3-7α,25OHC - the mice were fed with chow containing cuprizone for 9 weeks, and then with regular chow without cuprizone for another 2 weeks. […]

[1] = system: pro-inflammatory cytokine IL1β; experiment: Cuprizone model: IL1β mRNA in cerebellum lysates by PCR
Description: Identifying the mRNA levels of pro-inflammatory cytokine IL1β in mouse cerebellum lysates (Fig 11).

[2] = in vivo, from reference [6]; cited from earlier work
[3] = system: mice in the cuprizone model; experiment: Cuprizone model: mass spectrometer imaging and lipid quantification in brain sections; type: in vivo
Description: Measurement of lipoprotein density in myelin sheaths, taken on sections of brains of the mice in the cuprizone model. The mice in the cuprizone model subject were divided into 6 groups: • #1. control group: regular cuprizone-free chow for 9 weeks. The mice were euthanised after 9 weeks and tissue samples were taken for analysis. In these mice no removal of myelin sheaths occurred. • #2. control group with cuprizone: chow containing cuprizone for 9 weeks. The mice were euthanised after 9 weeks and tissue samples were taken for analysis. In the mice fed with chow containing cuprizone myelin sheaths were removed. • #3. vehicle control group - the mice were fed with chow containing cuprizone for 9 weeks, and then with regular chow without cuprizone for 2 weeks. Over the 2 weeks on regular show the mice in the vehicle control group were first injected with vehicle #1: DMSO, intraperitoneally, 150 µl once a day, and then with vehicle #2: canola oil, subcutaneously, 150 µl once a day. • #4. barbadin control group - the mice were fed with chow containing cuprizone for 9 weeks and then with regular chow without cuprizone for 2 weeks. […]
Mouse brain sections were imaged using a mass spectrometer and then the lipid density was quantified (Fig 4). […]

[4] = system: mice in the cuprizone model; experiment: Cuprizone model: luxol fast blue staining, lipoprotein (myelin) density in the corpus callosum; type: in vivo; settings: 20 mg/kg subcutaneously once a day for 2 weeks after 9 weeks of cuprizone (group #5), compared to vehicle group #3
Description: Measurement of lipoprotein density in myelin sheaths, taken on sections of brains of the mice in the cuprizone model. The mice in the cuprizone model subject were divided into 6 groups: • #1. control group: regular cuprizone-free chow for 9 weeks. The mice were euthanised after 9 weeks and tissue samples were taken for analysis. In these mice no removal of myelin sheaths occurred. • #2. control group with cuprizone: chow containing cuprizone for 9 weeks. The mice were euthanised after 9 weeks and tissue samples were taken for analysis. In the mice fed with chow containing cuprizone myelin sheaths were removed. • #3. vehicle control group - the mice were fed with chow containing cuprizone for 9 weeks, and then with regular chow without cuprizone for 2 weeks. Over the 2 weeks on regular show the mice in the vehicle control group were first injected with vehicle #1: DMSO, intraperitoneally, 150 µl once a day, and then with vehicle #2: canola oil, subcutaneously, 150 µl once a day. • #4. barbadin control group - the mice were fed with chow containing cuprizone for 9 weeks and then with regular chow without cuprizone for 2 weeks. Over the 2 weeks on regular chow the mice in this group were injected with barbadin 0.3 mg/kg, intraperitoneally, 150 µl once a day and then with vehicle #2: canola oil, subcutaneously, 150 µl once a day. • #5. oxysterol experimental group - the mice were fed with chow containing cuprizone for 9 weeks and then with regular chow without cuprizone for 2 weeks. […] Brain sections sampled from the mice were histochemically stained with luxol fast blue (Abcam, cat. No. Ab 150675), and the intensity (density) of the lipid staining in the corpus callosum was measured using the ImageJ software (ImageJ (nih.gov)). […]

C[C@H](CCCC(C)(C)O)[C@H]1CC[C@H]2[C@H]3[C@H](CC[C@]12C)[C@@]1(C)CC[C@H](O)CC1=C[C@]3(O)C(F)(F)F [CF3-7α,25OHC, cholestene-7β-trifluoromethyl,3β,7α,25-triol]
count of CD4+ cells in the corpus callosum (CD4+ cells): fewest; also recorded: lowest count
mRNA level of IL1β dropped by ([1]; cerebellum lysates, cuprizone model, compared to the group treated solely with vehicles): 28%
blood-brain barrier penetration ([1]; concluded from the IL1β effect in the cerebellum): penetrates the blood-brain barrier
pro-inflammatory cytokine IL1β in cerebellum lysates ([1]; cuprizone model, group #5): Reduction
in vivo half life [2]: 12 h
content of cholesterol in the corpus callosum ([3]; group E (CF3-7α,25OHC 20 mg/kg) compared to control group treated with vehicles): higher
number of lipids with higher synthesis / concentration in the corpus callosum (brain) ([3]; group E compared to untreated group C): 15
lipoprotein density in the corpus callosum, higher by [4]: 16%
myelin density / myelin regeneration in the corpus callosum [4]: increased
myelin density / myelin regeneration in the corpus callosum ([4]; listed as CF3-7α25OHC): more efficient (or faster) myelin regeneration
